Reference: BindingDB's records for patent US11566007 (Revolution Medicines, 2023)

What was measured:
Assay in all cases: Biochemical Assay
[1] = target: GTPase KRas [G12C] (Homo sapiens, UniProt P01116, G12C)
Source text: (§1) The purpose of this biochemical assay is to measure the ability of test compounds to covalently label nucleotide-loaded K-Ras isoforms. […] Analysis of raw data may be carried out using Waters MassLynx MS software, with % bound calculated from the deconvoluted protein peaks for labeled and unlabeled K-Ras.

[2] = target: GTPase NRas [G12C] (Homo sapiens, UniProt P01111, G12C)
GTPase NRas [G12C], sequence (P01111 whole entry G12C): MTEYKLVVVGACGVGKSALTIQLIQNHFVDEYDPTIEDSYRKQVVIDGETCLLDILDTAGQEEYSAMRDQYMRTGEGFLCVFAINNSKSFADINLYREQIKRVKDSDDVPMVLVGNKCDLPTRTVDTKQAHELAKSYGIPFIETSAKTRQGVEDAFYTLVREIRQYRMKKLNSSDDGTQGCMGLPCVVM

[3] = target: GTPase KRas (Homo sapiens, UniProt P01116)
GTPase KRas, sequence (P01116 whole entry): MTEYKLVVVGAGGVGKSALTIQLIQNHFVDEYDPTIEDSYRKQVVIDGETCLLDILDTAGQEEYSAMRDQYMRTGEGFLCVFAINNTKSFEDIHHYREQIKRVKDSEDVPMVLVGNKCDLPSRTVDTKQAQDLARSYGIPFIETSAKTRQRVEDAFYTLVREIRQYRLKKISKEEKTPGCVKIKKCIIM
Source text: as §1

[4] = target: GTPase NRas (Homo sapiens, UniProt P01111)
GTPase NRas, sequence (P01111 whole entry): as the sequence (P01111 whole entry G12C) above, with C12G counted along it

[5] = target: GTPase NRas [Q61R] (Homo sapiens, UniProt P01111, Q61R)
GTPase NRas [Q61R], sequence (P01111 whole entry Q61R): as the sequence (P01111 whole entry G12C) above, with C12G, Q61R counted along it

[6] = target: GTPase KRas [Q61H] (Homo sapiens, UniProt P01116, Q61H)
GTPase KRas [Q61H], sequence (P01116 whole entry Q61H): as the sequence (P01116 whole entry) above, with Q61H counted along it
Source text: as §1

[7] = target: GTPase KRas [G12S] (Homo sapiens, UniProt P01116, G12S)
GTPase KRas [G12S], sequence (P01116 whole entry G12S): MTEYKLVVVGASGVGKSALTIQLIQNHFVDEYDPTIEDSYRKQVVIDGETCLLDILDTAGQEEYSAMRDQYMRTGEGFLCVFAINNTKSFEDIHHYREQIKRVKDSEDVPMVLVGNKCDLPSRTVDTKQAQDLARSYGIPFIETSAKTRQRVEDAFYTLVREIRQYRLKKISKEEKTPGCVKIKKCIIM
Source text: as §1

[8] = target: GTPase KRas [G12D] (Homo sapiens, UniProt P01116, G12D)
GTPase KRas [G12D], sequence (P01116 whole entry G12D): as the sequence (P01116 whole entry) above, with G12D counted along it
Source text: as §1

[9] = target: GTPase NRas [Q61K] (Homo sapiens, UniProt P01111, Q61K)
GTPase NRas [Q61K], sequence (P01111 whole entry Q61K): as the sequence (P01111 whole entry G12C) above, with C12G, Q61K counted along it

[10] = target: GTPase KRas [G13C] (Homo sapiens, UniProt P01116, G13C)
GTPase KRas [G13C], sequence (P01116 whole entry G13C): as the sequence (P01116 whole entry) above, with G13C counted along it
Source text: as §1

[11] = target: GTPase KRas [G12V] (Homo sapiens, UniProt P01116, G12V)
GTPase KRas [G12V], sequence (P01116 whole entry G12V): as the sequence (P01116 whole entry) above, with G12V counted along it
Source text: as §1

GTPase KRas [G12C], sequence (P01116 whole entry G12C, canonical isoform): as the sequence (P01116 whole entry) above, with G12C counted along it

CCn1c(-c2cccnc2[C@H](C)OC)c2c3cc(ccc31)-c1cc(O)cc(c1)C[C@H](NC(=O)[C@H](C(C)C)N(C)C(=O)c1nc(NC(=O)/C=C/CN(C)C)cs1)C(=O)N1CCC[C@H](N1)C(=O)OCC(C)(C)C2 [US11566007, Example A258]
IC50 [1]: in the range around 550 nM
IC50 [2]: in the range around 550 nM

C=CC(=O)N1CC[C@H](C(=O)N(C)[C@H](C(=O)N[C@H]2Cc3cc(O)cc(c3)-c3ccc4c(c3)c(c(-c3cncc(COC)c3)n4CC)CC(C)(C)COC(=O)[C@@H]3CCCN(N3)C2=O)C(C)C)C1 [US11566007, Example A83]
IC50 [1]: in the range around 55 nM
IC50 [3]: in the range around 5500 nM
IC50 [4]: in the range around 5500 nM

C=CC(=O)N1CC[C@H](C(=O)N(C)[C@H](C(=O)N[C@H]2Cc3cc(O)cc(c3)-c3ccc4c(c3)c(c(-c3c(F)cccc3CCOC)n4CC)CC(C)(C)COC(=O)[C@@H]3CCCN(N3)C2=O)C(C)C)C1 [US11566007, Example A25]
IC50 [1]: in the range around 550 nM
IC50 [5]: > 10000 nM
IC50 [4]: in the range around 5500 nM

CCn1c(-c2cccnc2COC)c2c3cc(ccc31)-c1cc(O)cc(c1)C[C@H](NC(=O)[C@H](C(C)C)N(C)C(=O)[C@H]1CCN(C(=O)C#CCN3CCOCC3)C1)C(=O)N1CCC[C@H](N1)C(=O)OCC(C)(C)C2 [US11566007, Example A95]
IC50 [1]: < 10 nM
IC50 [2]: < 10 nM

C=CC(=O)N1CC[C@H](C(=O)N(C)[C@H](C(=O)N[C@H]2Cc3cc(O)cc(c3)-c3ccc4c(c3)c(c(-c3cccnc3COC)n4CC)CC(C)(C)COC(=O)[C@@H]3CCCN(N3)C2=O)C(C)C)C1 [US11566007, Example A16]
IC50 [1]: in the range around 55 nM
IC50 [6]: in the range around 550 nM
IC50 [2]: in the range around 55 nM

CCn1c(-c2ccccc2CCOC)c2c3cc(ccc31)-c1cc(O)cc(c1)C[C@H](NC(=O)[C@H](C(C)C)N(C)C(=O)[C@H]1CCN(C(=O)C#CCN(C)C)C1)C(=O)N1CCC[C@H](N1)C(=O)OCC(C)(C)C2 [US11566007, Example A38]
IC50 [7]: 1000 to 10000 nM
IC50 [2]: < 10 nM

C=CC(=O)N1CC[C@H](C(=O)N(C)[C@H](C(=O)N[C@H]2Cc3cc(O)cc(c3)-c3ccc4c(c3)c(c(-c3cnccc3C)n4CC)CC(C)(C)COC(=O)[C@@H]3CCCN(N3)C2=O)C(C)C)C1 [US11566007, Example A77]
IC50 [3]: in the range around 550 nM

C=CC(=O)N1CC[C@H](C(=O)N(C)[C@H](C(=O)N[C@H]2Cc3cc(O)cc(c3)-c3ccc4c(c3)c(c(-c3ccc5c(c3)OCCN5C)n4CC)CC(C)(C)COC(=O)[C@@H]3CCCN(N3)C2=O)C(C)C)C1 [US11566007, Example A50]
IC50 [1]: in the range around 550 nM
IC50 [5]: > 10000 nM

C=CC(=O)N1CC[C@H](C(=O)N(C)[C@H](C(=O)N[C@H]2Cc3cc(O)cc(c3)-c3ccc4c(c3)c(c(-c3ccncc3)n4C(C)(C)C#N)CC(C)(C)COC(=O)[C@@H]3CCCN(N3)C2=O)C(C)C)C1 [US11566007, Example A86]
IC50 [8]: in the range around 5500 nM
IC50 [1]: in the range around 55 nM
IC50 [6]: in the range around 550 nM

C=CC(=O)N1CC[C@H](C(=O)N(C)[C@H](C(=O)NC2C[C@@H]3CN(CCO3)c3ccc4c(c3)c(c(-c3cccnc3COC)n4CC)CC(C)(C)COC(=O)[C@@H]3CCCN(N3)C2=O)C(C)C)C1 (stereo partly specified) [US11566007, Example A318]
IC50 [2]: > 10000 nM

C=CC(=O)N1CC[C@H](C(=O)N(C)[C@H](C(=O)N[C@H]2Cc3cc(O)cc(c3)-c3ccc4c(c3)c(c(-c3cccnc3)n4CC)CC(C)(C)COC(=O)[C@@H]3CCCN(N3)C2=O)C(C)C)C1 [US11566007, Example A45]
IC50 [5]: > 10000 nM
IC50 [4]: in the range around 5500 nM

C=CC(=O)N1CC[C@H](C(=O)N(C)[C@H](C(=O)N[C@H]2Cc3cc(O)cc(c3)-c3cc(F)c4c(c3)c(c(-c3ccccc3CCOC)n4CC)CC(C)(C)COC(=O)[C@@H]3CCCN(N3)C2=O)C(C)C)C1 [US11566007, Example A53]
IC50 [1]: in the range around 550 nM
IC50 [9]: > 10000 nM

C=CC(=O)N1CC[C@H](C(=O)N(C)[C@H](C(=O)N[C@H]2Cc3cc(O)cc(c3)-c3ccc4c(c3)c(c(-c3c(CCOC)cccc3OC)n4CC)CC(C)(C)COC(=O)[C@@H]3CCCN(N3)C2=O)C(C)C)C1 [US11566007, Example A80]
IC50 [1]: in the range around 550 nM
IC50 [5]: > 10000 nM

C=CC(=O)N1CC[C@H](C(=O)N(C)[C@H](C(=O)N[C@H]2Cc3cc(O)cc(c3)-c3ccc4c(c3)c(c(-c3cncnc3)n4CC)CC(C)(C)COC(=O)[C@@H]3CCCN(N3)C2=O)C(C)C)C1 [US11566007, Example A61]
IC50 [1]: in the range around 550 nM
IC50 [5]: > 10000 nM
IC50 [9]: in the range around 5500 nM

CCn1c(-c2cccnc2COC)c2c3cc(ccc31)-c1cc(O)cc(c1)C[C@H](NC(=O)[C@H](C(C)C)N(C)C(=O)[C@H]1CCN(C(=O)C#CCN(C)C)C1)C(=O)N1CCC[C@H](N1)C(=O)OCC(C)(C)C2 [US11566007, Example A96]
IC50 [10]: < 10 nM
IC50 [7]: 100 to 1000 nM
IC50 [2]: < 10 nM

C=CC(=O)N1CC[C@H](C(=O)N(C)[C@H](C(=O)N[C@H]2Cc3cc(O)cc(c3)-c3ccc4c(c3)c(c(-c3nccnc3COC)n4CC)CC(C)(C)COC(=O)[C@@H]3CCCN(N3)C2=O)C(C)C)C1 [US11566007, Example A85]
IC50 [4]: > 10000 nM

C=CC(=O)N1CC[C@H](C(=O)N(C)[C@H](C(=O)N[C@H]2Cc3cc(O)cc(c3)-c3ccc4c(c3)c(c(-c3ccccc3COC)n4CC)CC(C)(C)COC(=O)[C@@H]3CCCN(N3)C2=O)C2CCCC2)C1 [US11566007, Example A27]
IC50 [1]: in the range around 55 nM
IC50 [3]: in the range around 5500 nM

C=CC(=O)N1CC[C@H](C(=O)N(C)[C@H](C(=O)N[C@H]2Cc3cc(O)cc(c3)-c3ccc4c(c3)c(c(-c3ccccc3N3CCOCC3)n4CC)CC(C)(C)COC(=O)[C@@H]3CCCN(N3)C2=O)C(C)C)C1 [US11566007, Example A26]
IC50 [1]: in the range around 550 nM
IC50 [5]: > 10000 nM

C=CC(=O)N1CC[C@H](C(=O)N(C)[C@H](C(=O)N[C@H]2Cc3cc(O)cc(c3)-c3ccc4c(c3)c(c(-c3ncccc3COC)n4CC)CC(C)(C)COC(=O)[C@@H]3CCCN(N3)C2=O)C(C)C)C1 [US11566007, Example A84]
IC50 [9]: > 10000 nM

C=CC(=O)N1CC[C@H](C(=O)N(C)[C@H](C(=O)N[C@H]2CC3=NN=C(O3)c3ccc4c(c3)c(c(-c3cccnc3[C@H](C)OCC)n4CC(F)(F)F)CC(C)(C)COC(=O)[C@@H]3CCCN(N3)C2=O)C(C)C)C1 [US11566007, Example A424]
IC50 [10]: in the range around 5500 nM
IC50 [1]: in the range around 550 nM
IC50 [2]: in the range around 550 nM

C=CC(=O)N1CC[C@H](C(=O)N(C)[C@H](C(=O)N[C@H]2Cc3nc(cs3)-c3ccc4c(c3)c(c(-c3cccnc3COC)n4CC)CC(C)(C)COC(=O)[C@@H]3CCCN(N3)C2=O)C(C)C)C1 [US11566007, Example A94]
IC50 [1]: in the range around 550 nM
IC50 [2]: in the range around 550 nM

CCn1c(-c2cnccc2COC)c2c3cc(ccc31)-c1cc(O)cc(c1)C[C@H](NC(=O)[C@H](C(C)C)N(C)C(=O)[C@H]1CCN(C(=O)C#CCN(C)C)C1)C(=O)N1CCC[C@H](N1)C(=O)OCC(C)(C)C2 [US11566007, Example A88]
IC50 [2]: < 10 nM

C=CC(=O)N1CC[C@H](C(=O)N(C)[C@H](C(=O)N[C@H]2Cc3cc(O)cc(c3)-c3ccc4c(c3)c(c(-c3cc(F)cnc3COC)n4CC)CC(C)(C)COC(=O)[C@@H]3CCCN(N3)C2=O)C(C)C)C1 [US11566007, Example A82]
IC50 [11]: in the range around 550 nM

C=CC(=O)N1CC[C@H](C(=O)N(C)[C@H](C(=O)N[C@H]2Cc3cc(O)cc(c3)-c3ccc4c(c3)c(c(-c3ccccc3[C@H](C)OC)n4CC)CC(C)(C)COC(=O)[C@@H]3CCCN(N3)C2=O)C(C)C)C1 [US11566007, Example A22]
IC50 [6]: in the range around 55 nM
IC50 [4]: in the range around 550 nM

C=CC(=O)N1CC[C@H](C(=O)N(C)[C@H](C(=O)N[C@H]2Cc3cc(O)cc(c3)-c3ccc4c(c3)c(c(-c3cccnc3N3CC(OC)C3)n4CC)CC(C)(C)COC(=O)[C@@H]3CCCN(N3)C2=O)C(C)C)C1 [US11566007, Example A60]
IC50 [1]: in the range around 550 nM
IC50 [5]: > 10000 nM

C=CC(=O)N1CC[C@H](C(=O)N(C)[C@H](C(=O)N[C@H]2Cc3cc(O)cc(c3)-c3ccc4c(c3)c(c(C3=C(COC)CCCC3)n4CC)CC(C)(C)COC(=O)[C@@H]3CCCN(N3)C2=O)C(C)C)C1 [US11566007, Example A64]
IC50 [10]: in the range around 5500 nM
IC50 [1]: in the range around 55 nM
IC50 [5]: in the range around 5500 nM

C=CC(=O)N1CC[C@H](C(=O)N(C)[C@H](C(=O)N[C@H]2Cc3cc(O)cc(c3)-c3ccc4c(c3)c(c(-c3ccccc3)n4CC)CC(C)(C)COC(=O)[C@@H]3CCCN(N3)C2=O)C(C)C)C1 [US11566007, Example A23]
IC50 [1]: in the range around 550 nM
IC50 [4]: > 10000 nM
